According to ChEMBL document CHEMBL3872247, “Discovery of dual positive allosteric modulators (PAMs) of the metabotropic glutamate 2 receptor and CysLT1 antagonists for treating migraine headache” (Bioorg Med Chem Lett, 2017):
pEC50, pIC50, pKi: −log10 of the molar value.

Experiments:
[1] = Clearance in dog at 0.5 mg/kg, iv; assay type: ADME, organism-based, Canis lupus familiaris; conditions: in vivo
[2] = Tmax in rat at 1 mg/kg, po; assay type: ADME, organism-based; conditions: in vivo
[3] = target: T1, Metabotropic glutamate receptor 5 (Homo sapiens, UniProt P41594); assay: Antagonist activity at recombinant human mGlu5 receptor expressed in hamster AV12 cells expressing EAAT1 assessed as inhibition of glutamate-induced intracellular Ca2+ level measured after 24 hrs by FLIPR assay; assay type: functional, cell-based
T1 sequence (P41594 whole entry): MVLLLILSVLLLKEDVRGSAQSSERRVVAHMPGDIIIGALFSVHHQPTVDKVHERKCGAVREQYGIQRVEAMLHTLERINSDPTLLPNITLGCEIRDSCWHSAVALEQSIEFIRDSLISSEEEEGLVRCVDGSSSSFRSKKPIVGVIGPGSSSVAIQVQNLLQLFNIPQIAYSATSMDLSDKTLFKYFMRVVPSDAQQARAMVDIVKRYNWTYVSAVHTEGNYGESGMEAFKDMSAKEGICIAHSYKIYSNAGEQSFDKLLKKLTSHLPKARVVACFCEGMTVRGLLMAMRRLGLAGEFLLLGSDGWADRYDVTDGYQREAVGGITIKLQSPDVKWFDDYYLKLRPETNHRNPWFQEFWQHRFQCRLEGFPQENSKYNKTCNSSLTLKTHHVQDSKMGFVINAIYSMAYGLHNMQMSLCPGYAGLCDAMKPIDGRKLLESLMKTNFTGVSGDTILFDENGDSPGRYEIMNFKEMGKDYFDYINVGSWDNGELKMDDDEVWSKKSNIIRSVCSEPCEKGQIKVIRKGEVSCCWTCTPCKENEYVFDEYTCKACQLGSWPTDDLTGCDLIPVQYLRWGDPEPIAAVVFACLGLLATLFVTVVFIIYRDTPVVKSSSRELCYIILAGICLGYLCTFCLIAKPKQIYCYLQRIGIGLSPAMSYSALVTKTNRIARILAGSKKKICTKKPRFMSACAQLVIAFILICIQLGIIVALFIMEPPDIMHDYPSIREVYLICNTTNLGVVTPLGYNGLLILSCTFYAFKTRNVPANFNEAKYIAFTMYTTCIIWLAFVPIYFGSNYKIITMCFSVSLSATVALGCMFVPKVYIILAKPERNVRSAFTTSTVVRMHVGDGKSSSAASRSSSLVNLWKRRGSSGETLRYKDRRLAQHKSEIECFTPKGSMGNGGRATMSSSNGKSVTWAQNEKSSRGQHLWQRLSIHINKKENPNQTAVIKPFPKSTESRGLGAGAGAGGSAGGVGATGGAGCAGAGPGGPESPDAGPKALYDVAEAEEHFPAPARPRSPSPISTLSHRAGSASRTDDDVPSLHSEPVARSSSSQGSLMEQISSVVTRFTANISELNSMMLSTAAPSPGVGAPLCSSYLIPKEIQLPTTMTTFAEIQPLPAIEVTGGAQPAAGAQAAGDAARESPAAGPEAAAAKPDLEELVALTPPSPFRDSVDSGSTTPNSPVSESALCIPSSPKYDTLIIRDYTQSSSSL

[4] = target: 5-hydroxytryptamine receptor 2C (Homo sapiens, UniProt P28335); assay: Activity at human 5T2C receptor
Rattus norvegicus = species: Rattus norvegicus; assay: Displacement of [3H]D888 from L-type calcium channel verapamil binding site in rat cerebral cortex at 10 uM measured after 120 mins by scintillation counting method
[5] = target: 5-hydroxytryptamine receptor 6 (Homo sapiens, UniProt P50406); assay: Displacement of [3H]LSD from human 5HT6 receptor expressed in CHO cells after 120 mins by scintillation counting method; assay type: cell-based
Chain of 5-hydroxytryptamine receptor 6 (P50406 whole entry): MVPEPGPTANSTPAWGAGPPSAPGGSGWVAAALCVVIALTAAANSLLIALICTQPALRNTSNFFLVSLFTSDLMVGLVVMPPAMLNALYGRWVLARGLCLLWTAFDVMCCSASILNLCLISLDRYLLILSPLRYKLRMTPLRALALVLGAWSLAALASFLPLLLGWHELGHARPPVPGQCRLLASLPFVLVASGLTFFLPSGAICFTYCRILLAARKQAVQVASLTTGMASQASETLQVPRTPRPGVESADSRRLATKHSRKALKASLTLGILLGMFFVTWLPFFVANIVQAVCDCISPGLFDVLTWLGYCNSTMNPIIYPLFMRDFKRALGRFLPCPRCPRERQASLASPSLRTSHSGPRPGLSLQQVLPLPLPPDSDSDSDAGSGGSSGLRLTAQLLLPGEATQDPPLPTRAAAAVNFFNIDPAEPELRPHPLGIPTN

[6] = Clearance in rat at 1 mg/kg, iv; assay type: ADME, organism-based; conditions: in vivo
[7] = target: 5-hydroxytryptamine receptor 7 (Homo sapiens, UniProt P34969); assay: Displacement of [3H]LSD from human 5HT7 receptor expressed in CHO cells after 120 mins by scintillation counting method; assay type: cell-based
[8] = target: T2, Metabotropic glutamate receptor 2 (Homo sapiens, UniProt Q14416); assay: Positive allosteric modulation of recombinant human mGlu2 receptor expressed in hamster AV12 cells expressing EAAT1 assessed as potentiation of glutamate-induced intracellular calcium level measured after 24 to 48 hrs by FLIPR assay; assay type: functional, cell-based
T2 sequence (Q14416 whole entry): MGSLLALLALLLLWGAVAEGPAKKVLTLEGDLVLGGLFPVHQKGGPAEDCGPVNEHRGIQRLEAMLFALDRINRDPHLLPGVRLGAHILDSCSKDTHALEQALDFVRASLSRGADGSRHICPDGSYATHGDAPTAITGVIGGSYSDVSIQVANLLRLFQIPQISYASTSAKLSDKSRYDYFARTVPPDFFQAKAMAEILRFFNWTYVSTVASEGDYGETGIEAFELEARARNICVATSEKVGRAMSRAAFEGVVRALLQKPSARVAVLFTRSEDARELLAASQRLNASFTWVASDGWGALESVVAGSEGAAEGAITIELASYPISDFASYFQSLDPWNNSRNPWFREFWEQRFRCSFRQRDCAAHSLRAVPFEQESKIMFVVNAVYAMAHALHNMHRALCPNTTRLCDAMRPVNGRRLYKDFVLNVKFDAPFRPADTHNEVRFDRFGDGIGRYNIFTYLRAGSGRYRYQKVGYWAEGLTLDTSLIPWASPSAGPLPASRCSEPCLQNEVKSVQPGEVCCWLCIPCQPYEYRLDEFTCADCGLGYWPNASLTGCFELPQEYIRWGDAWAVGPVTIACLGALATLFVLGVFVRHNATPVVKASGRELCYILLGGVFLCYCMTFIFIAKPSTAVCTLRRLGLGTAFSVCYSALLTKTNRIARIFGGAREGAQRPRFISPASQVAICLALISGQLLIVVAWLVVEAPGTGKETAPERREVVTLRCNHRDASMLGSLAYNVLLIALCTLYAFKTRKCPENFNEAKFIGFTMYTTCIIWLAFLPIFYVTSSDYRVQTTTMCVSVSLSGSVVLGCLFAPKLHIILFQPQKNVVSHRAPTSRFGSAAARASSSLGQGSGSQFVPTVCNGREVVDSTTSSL

[9] = Oral bioavailability in dog at 1 mg/kg; assay type: ADME, organism-based, Canis lupus familiaris; conditions: in vivo
[10] = target: 5-hydroxytryptamine receptor 1E (Homo sapiens, UniProt P28566); assay: Activity at human 5HT1E receptor
Chain of 5-hydroxytryptamine receptor 1E (P28566 whole entry): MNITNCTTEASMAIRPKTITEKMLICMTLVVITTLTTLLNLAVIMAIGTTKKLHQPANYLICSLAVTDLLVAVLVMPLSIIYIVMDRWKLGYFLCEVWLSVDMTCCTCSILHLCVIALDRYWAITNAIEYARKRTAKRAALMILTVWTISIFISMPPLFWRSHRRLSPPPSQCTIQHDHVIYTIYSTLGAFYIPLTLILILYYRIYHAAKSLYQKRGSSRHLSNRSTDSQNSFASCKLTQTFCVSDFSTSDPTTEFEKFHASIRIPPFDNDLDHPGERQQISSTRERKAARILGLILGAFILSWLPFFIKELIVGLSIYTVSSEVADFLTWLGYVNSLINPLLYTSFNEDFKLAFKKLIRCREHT

Cytochrome P450 2C9 = Cytochrome P450 2C9 (Homo sapiens, UniProt P11712); assay: Inhibition of CYP2C9 (unknown origin); assay type: ADME
Chain of Cytochrome P450 2C9 (P11712 whole entry): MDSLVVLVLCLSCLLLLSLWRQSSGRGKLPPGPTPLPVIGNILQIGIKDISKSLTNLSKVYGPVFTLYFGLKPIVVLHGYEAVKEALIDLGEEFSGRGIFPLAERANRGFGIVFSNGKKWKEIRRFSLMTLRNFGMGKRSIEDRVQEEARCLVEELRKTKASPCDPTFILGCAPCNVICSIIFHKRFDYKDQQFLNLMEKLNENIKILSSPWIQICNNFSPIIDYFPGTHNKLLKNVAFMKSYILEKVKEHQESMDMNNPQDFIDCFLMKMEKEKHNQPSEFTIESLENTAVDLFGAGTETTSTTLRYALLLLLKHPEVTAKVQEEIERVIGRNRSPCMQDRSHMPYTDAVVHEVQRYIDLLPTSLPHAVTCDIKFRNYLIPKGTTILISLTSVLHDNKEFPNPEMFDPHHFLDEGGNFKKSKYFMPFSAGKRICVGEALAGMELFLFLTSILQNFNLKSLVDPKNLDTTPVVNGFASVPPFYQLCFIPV

[11] = target: Metabotropic glutamate receptor 8 (Homo sapiens) (UniProt O00222); assay: Positive allosteric modulation of recombinant human mGlu8 expressed in hamster AV12 cells expressing EAAT1 assessed as potentiation of glutamate-induced intracellular Ca2+ level at 20 uM after 24 hrs by FLIPR assay; assay type: functional, cell-based
[12] = target: 5-hydroxytryptamine receptor 5A (Homo sapiens, UniProt P47898); assay: Displacement of human 5HT5A receptor expressed in HEK293 cells after 120 mins by scintillation counting method; assay type: cell-based
[13] = Oral bioavailability in rat at 1 mg/kg; assay type: ADME, organism-based; conditions: in vivo
[14] = target: Beta-1 adrenergic receptor (Homo sapiens) (UniProt P08588); assay: Displacement of [3H](-)CGP12177 from recombinant human beta1 adrenergic receptor expressed in HEK293 cells at 10 uM measured after 60 mins by scintillation counting method; assay type: cell-based
Chain of Beta-1 adrenergic receptor (Homo sapiens) (P08588 whole entry, looked up): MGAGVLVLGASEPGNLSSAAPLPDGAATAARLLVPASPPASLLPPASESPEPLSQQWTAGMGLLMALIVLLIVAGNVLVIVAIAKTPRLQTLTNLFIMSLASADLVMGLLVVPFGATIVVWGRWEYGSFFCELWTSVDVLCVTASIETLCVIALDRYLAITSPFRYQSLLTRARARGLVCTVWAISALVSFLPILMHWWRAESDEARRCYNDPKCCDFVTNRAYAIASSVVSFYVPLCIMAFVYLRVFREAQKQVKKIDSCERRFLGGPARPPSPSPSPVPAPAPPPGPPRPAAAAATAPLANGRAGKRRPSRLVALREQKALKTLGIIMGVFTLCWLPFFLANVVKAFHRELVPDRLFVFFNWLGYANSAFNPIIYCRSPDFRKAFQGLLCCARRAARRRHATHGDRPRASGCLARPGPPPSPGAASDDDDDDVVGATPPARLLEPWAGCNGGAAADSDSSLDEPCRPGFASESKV

[15] = Volume of distribution in rat at 1 mg/kg, iv; assay type: ADME, organism-based; conditions: in vivo
[16] = target: Metabotropic glutamate receptor 3 (Homo sapiens, UniProt Q14832); assay: Agonist activity at recombinant human mGlu3 expressed in hamster AV12 cells expressing EAAT1 assessed as increase in intracellular calcium level measured after 24 hrs by FLIPR assay; assay type: functional, cell-based
[17] = Cmax in rat at 1 mg/kg, po; assay type: ADME, organism-based; set-up: dose 1 mg/kg, route oral; conditions: in vivo
[18] = Cmax in dog at 1 mg/kg, po; assay type: ADME, organism-based, Canis lupus familiaris; set-up: dose 1 mg/kg, route oral; conditions: in vivo
[19] = target: 5-hydroxytryptamine receptor 1B (Homo sapiens, UniProt P28222); assay: Activity at human 5HT1B receptor
[20] = target: T3, Metabotropic glutamate receptor 1 (Homo sapiens, UniProt Q13255); assay: Positive allosteric modulation of recombinant human mGlu1 expressed in hamster AV12 cells expressing EAAT1 assessed as potentiation of glutamate-induced intracellular Ca2+ level measured after 24 hrs by FLIPR assay; assay type: functional, cell-based
T3 sequence (Q13255 whole entry): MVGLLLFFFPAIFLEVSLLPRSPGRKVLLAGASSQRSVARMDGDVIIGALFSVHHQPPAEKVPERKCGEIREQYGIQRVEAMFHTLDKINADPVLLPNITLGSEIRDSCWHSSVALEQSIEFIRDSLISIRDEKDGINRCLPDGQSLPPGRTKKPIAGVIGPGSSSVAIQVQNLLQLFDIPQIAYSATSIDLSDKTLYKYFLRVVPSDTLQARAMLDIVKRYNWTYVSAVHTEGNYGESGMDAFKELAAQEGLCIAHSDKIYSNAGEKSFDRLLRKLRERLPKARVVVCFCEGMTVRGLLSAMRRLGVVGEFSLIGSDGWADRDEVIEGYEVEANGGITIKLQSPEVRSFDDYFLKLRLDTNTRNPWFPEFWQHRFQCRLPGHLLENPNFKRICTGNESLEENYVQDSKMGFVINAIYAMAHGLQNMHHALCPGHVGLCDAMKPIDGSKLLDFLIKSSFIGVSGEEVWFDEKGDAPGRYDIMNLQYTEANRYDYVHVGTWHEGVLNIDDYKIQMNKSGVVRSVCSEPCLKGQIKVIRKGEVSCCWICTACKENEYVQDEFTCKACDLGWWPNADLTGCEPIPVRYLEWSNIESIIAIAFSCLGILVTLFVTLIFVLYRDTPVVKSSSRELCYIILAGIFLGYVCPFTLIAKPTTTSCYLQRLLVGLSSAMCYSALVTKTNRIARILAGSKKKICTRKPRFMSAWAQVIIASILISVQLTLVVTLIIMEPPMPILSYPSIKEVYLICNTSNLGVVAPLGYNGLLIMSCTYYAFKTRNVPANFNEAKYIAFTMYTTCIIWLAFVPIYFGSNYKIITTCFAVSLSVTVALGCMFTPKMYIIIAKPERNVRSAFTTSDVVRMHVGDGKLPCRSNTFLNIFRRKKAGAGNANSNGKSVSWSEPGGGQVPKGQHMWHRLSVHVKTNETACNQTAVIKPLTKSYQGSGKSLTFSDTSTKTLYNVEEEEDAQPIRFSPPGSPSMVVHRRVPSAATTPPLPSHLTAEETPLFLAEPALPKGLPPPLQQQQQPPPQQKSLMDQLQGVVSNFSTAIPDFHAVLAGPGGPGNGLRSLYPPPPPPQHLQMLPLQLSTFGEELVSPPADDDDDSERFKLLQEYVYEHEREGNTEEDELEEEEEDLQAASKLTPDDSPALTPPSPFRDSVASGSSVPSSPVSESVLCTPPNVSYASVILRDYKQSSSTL

[21] = Half life in rat at 1 mg/kg, po; assay type: ADME, organism-based; conditions: in vivo
[22] = target: T2, Metabotropic glutamate receptor 2; assay: Antagonist activity at recombinant human mGlu2 receptor expressed in hamster AV12 cells expressing EAAT1 assessed as inhibition of glutamate-induced increase in intracellular Ca2+ level measured after 24 to 48 hrs by FLIPR assay; assay type: functional, cell-based
[23] = Ratio of Cmax in rat to EC50 for human CysLT1 expressed in Syrian hamster AV12-664 cells
[24] = target: T2, Metabotropic glutamate receptor 2; assay: Agonist activity at recombinant human mGlu2 receptor expressed in hamster AV12 cells expressing EAAT1 assessed as increase in intracellular calcium level measured after 24 to 48 hrs by FLIPR assay; assay type: functional, cell-based
[25] = target: Muscarinic acetylcholine receptor (Rattus norvegicus) (UniProt P08482+P08483+P08485+P08911+P10980); assay: Displacement of [3H]QNB from non-selective muscarinic receptor in rat cerebral cortex at 10 uM measured after 120 mins by scintillation counting method
[26] = target: T3, Metabotropic glutamate receptor 1; assay: Agonist activity at recombinant human mGlu1 expressed in hamster AV12 cells expressing EAAT1 assessed as increase in intracellular calcium level measured after 24 hrs by FLIPR assay; assay type: functional, cell-based
[27] = Half life in dog at 0.5 mg/kg, iv; assay type: ADME, organism-based, Canis lupus familiaris; conditions: in vivo
[28] = target: T1, Metabotropic glutamate receptor 5; assay: Agonist activity at recombinant human mGlu5 expressed in hamster AV12 cells expressing EAAT1 assessed as increase in intracellular calcium level measured after 24 hrs by FLIPR assay; assay type: functional, cell-based
[29] = Cmax in dog at 0.5 mg/kg, iv; assay type: ADME, organism-based, Canis lupus familiaris; set-up: dose 0.5 mg/kg, route intravenous; conditions: in vivo

**Q.** What does the source list for CC(=O)c1ccc(OCc2ccc(Oc3cc(-c4nn[nH]n4)ccn3)cc2)c(C)c1O?
**A.** clearance [1]: 12 mL/min/kg; Tmax [2]: 2.5 h; pIC50 [3]: < 4.90; pKi [4]: < 5.10; inhibition (Rattus norvegicus): 63.1%; pKi [5]: < 5.75; clearance [6]: 11 mL/min/kg; pKi [7]: < 5.40; pEC50 [8]: 6.54 to 6.70; bioavailability [9]: 32%; pKi [10]: < 5.27; INH (Cytochrome P450 2C9): > 40 µM; Activity [11]: < 20%; pKi [12]: < 5.16; bioavailability [13]: 39%; inhibition [14]: 5.1%; Vd [15]: 2 L/kg; pEC50 [16]: < 4.60; Cmax [17]: 78 ng/mL; Cmax [18]: 143 ng/mL; pKi [19]: < 5.45; pEC50 [20]: < 4.90; half-life [21]: 480 min; pIC50 [22]: < 4.90; Ratio [23]: 7.8; pEC50 [24]: < 4.60; inhibition [25]: 22.9%; pEC50 [26]: < 4.60; half-life [27]: 120 min; pEC50 [28]: < 4.60; Cmax [29]: 2540 ng/mL
